“And” between values parts separate entries of the source, which are not always exact repeats. Equal values may be shown once. Read-outs that look alike come from different tables or passages of the source.
How the values were obtained:
[1] = molecular target: T1, androgen receptor (rat ventral prostate cytosol) (Rattus norvegicus, UniProt P15207); test: Androgen Receptor Binding Using Rat Ventral Prostate Cytosol
T1 construct: from tissue; host or cells: ventral prostate of castrated male Sprague Dawley or Wistar rats, cytosol
T1 sequence (P15207 1-902): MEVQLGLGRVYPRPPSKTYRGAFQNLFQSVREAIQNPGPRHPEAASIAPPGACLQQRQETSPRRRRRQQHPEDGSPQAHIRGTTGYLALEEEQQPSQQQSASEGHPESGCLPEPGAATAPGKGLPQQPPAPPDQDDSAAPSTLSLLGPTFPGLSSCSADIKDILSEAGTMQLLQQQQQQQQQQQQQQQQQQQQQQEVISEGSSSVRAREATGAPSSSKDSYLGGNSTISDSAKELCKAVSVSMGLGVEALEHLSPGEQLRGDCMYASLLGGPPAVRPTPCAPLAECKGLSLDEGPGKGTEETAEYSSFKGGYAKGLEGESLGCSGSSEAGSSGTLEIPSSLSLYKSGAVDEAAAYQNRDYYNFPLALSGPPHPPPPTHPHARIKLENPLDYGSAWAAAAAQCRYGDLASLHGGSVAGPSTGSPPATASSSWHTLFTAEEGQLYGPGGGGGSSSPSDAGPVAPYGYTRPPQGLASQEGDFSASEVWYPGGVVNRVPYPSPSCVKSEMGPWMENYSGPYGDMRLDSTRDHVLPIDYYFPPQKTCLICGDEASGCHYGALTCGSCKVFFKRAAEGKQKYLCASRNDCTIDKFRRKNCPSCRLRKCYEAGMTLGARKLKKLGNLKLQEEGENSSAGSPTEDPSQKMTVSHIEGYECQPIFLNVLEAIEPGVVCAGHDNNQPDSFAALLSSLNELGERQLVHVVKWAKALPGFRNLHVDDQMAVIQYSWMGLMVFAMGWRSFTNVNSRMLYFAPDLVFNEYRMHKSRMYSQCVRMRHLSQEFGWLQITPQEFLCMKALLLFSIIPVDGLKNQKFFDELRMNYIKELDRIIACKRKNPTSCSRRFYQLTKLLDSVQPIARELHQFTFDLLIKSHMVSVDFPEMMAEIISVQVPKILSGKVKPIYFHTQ
Procedure: (§1) The assay was run on a 96 well plate with each well filled with a total reaction volume 150 μL, of a solution containing 5 pmol androgen receptor LBD (Panvera) or 30 μL of freshly prepared rat cytosol, 0.5 nM [^3H] […] (TED buffer contains 10 mM Tris.HCl pH 7.4, 1 mM sodium molybdate, 1.5 mM EDTA, 1 mM DTT and 10% (v/v) glycerol.)
(§2) On day one, the solution containing receptor, tracer and TED buffer was distributed into a 96 well plate. Diluted test compound or control vehicle was then added to individual wells and the plate incubated at 4° C. overnight.
(§3) On day two, to each well was then added 20 μL human γ-globulin (ICN 823102), prepared at 25 mg/ml in TE pH 8.0, and 55 μL 40% polyethylene glycol 8000 (JT Baker U222-08), prepared in TE pH 8.0. The plate was incubated at 4° C. for 60 minutes. During incubation, the harvester was rinsed with 10% PEG 8000, prepared in TE pH 8.0, and a GF/C Unifilter-96 was pre-wet with 10% PEG. The binding reaction was filtered, the retentate was washed three times with 10% PEG and dried under vacuum for a couple of minutes, then dried at 50° C. for 5 min and the plate was bottom sealed. Next, 25 μL of Microscint-20 (Packard) was added to the filter wells and the plate was top sealed. The plate wells were then counted on a TopCount (Packard).
Rat Prostate Cytosol Preparation:
Male Sprague Dawley or Wistar rats (Charles River, 200-300 g) were used for each preparation. The day before preparing the cytosol, the rats were castrated using standard surgical procedures.
The rats were euthanized by carbon dioxide asphyxiation. The rat prostates were quickly removed and placed on ice in pre-chilled, pre-weighed 50 mL plastic tubes. No more than five prostates were placed into one tube. The tubes were then weighed and the prostate tissue wet weights calculated.
To the chilled prostate tissue was then added […] of chilled homogenization buffer. The homogenization buffer was freshly prepared by mixing 10 mM Tris.HCl, pH 7.4, 1 mM sodium molybdate, 1.5 mM EDTA, 1 mM dithiothreitol, 10% (v/v) glycerol and 1% protease inhibitor cocktail (Sigma P 8340).
The prostate tissue was homogenized in a cold room using a pre-chilled Polytron PT3000 homogenizer (Brinkmann). Homogenization was performed at a speed setting of 20, three times for 10 sec bursts. The tubes containing the prostate tissue was kept on ice while homogenizing. The homogenate was allowed to rest on ice for 20 sec between bursts.
The homogenate was then placed into pre-chilled 3 mL polycarbonate ultracentrifuge tubes and centrifuged in the TLA-100 rotor of a TL-100 ultracentrifuge for 12 min at 100,000 rpm at 4° C. The resulting supernatant was stored in 1 mL aliquots at −80° C. until needed.
Binding to the androgen receptor was determined according to the protocol described in Example 86 using the above prepared rat cytosol.
% Inhibition was determined by testing dilutions of the test compound (usually duplicates of 10 μM) in the binding assay. Counts per well were measured and percents of inhibition determined. […] Counts per well were measured and IC50s determined by linear regression.

[2] = molecular target: T2, androgen receptor LBD (Panvera) (Rattus norvegicus, UniProt P15207); test: Androgen Receptor Filtration Binding Assay (PANVERA)
T2 construct: 5 pmol androgen receptor LBD (Panvera); purchased Panvera
T2 sequence (P15207 651-882 limits assumed): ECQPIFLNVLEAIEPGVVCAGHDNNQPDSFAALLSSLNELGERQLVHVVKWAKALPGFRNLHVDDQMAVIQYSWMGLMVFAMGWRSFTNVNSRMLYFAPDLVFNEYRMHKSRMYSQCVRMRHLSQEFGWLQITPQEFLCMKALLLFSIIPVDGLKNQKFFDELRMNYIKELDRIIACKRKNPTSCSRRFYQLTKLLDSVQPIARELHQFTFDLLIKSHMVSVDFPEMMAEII
Procedure: as §1, §2, §3
Counts per well were measured and IC50s determined by linear regression.

[3] = molecular target: T3, androgen receptor (adenovirus AdEasy+rAR in L929 cells) (Rattus norvegicus, UniProt P15207); test: L929 Androgen Receptor Functional Assay, Adenovirus Transduction; assay type: cell-based; settings: L929 agonist testing; 3000 nM
T3 construct: expressed in transfected cells
T3 sequence (P15207 1-902): T1 sequence (P15207 1-902)
Method in brief: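 L929 cells in phenol red-free, charcoal-stripped serum medium transduced with AdEasy+rAR (moi 1:500) and exposed 48 h at 37 °C to compound alone (agonist mode) or with R1881 (antagonist mode; 2.5 nM as the 2.5× dilution).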

[4] = test system: testosterone-enhanced ventral prostate and seminal vesicle weights in castrated male Sprague Dawley rats; test: Ventral Prostate and Seminal Vesicle Weight In Vivo Assay; design: species or system rat; settings: immature castrated rats; once daily for five days, usually orally at 40 mg/kg, with testosterone propionate 2 mg/kg s.c.
Method in brief: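 Immature (~50 g) castrated Sprague Dawley rats dosed once daily for five days with compound (usually oral, 40 mg/kg, cyclodextrin or methylcellulose vehicle) plus testosterone propionate 2 mg/kg s.c. Wet ventral prostate and seminal vesicle weights taken on day six; activity judged by prostate weight or body-weight-adjusted % inhibition.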

[5] = Androgen Receptor Binding (Panvera), 0.5 nM [3H] R1881 tracer
[6] = rat cytosol, concentration 3000 nM
[7] = rat cytosol, concentration 1000 nM
[8] = rat cytosol, concentration 1000 nM, 1 µM

CC(O)(CSC1CCCCC1)c1cc2nc(C(F)(F)F)ccc2[nH]1 (racemic) [Compound #1]
% Inhibition ([1]; 1 µM): 22% | IC50 [2, 5]: 14 µM

CN(C)c1ccc(S(=O)(=O)CC(C)(O)c2cc3cc(Cl)c(C(F)(F)F)cc3[nH]2)cc1 (racemic) [compound 126]
% Activity [3]: −5% | % Inhibition [1, 6]: −30% | active / inactive (inhibition of testosterone-enhanced prostate weight) [4]: inactive

CC(O)(CS(=O)(=O)Cc1ccccc1)c1cc2cc([N+](=O)[O-])c(C(F)(F)F)cc2[nH]1 (racemic) [compound 162]
% Activity [3]: 2% | % Inhibition [1, 6]: 0.69% | active / inactive (inhibition of testosterone-enhanced prostate weight) [4]: inactive

CC(O)(Sc1ccc(Cl)c(Cl)c1)c1cc2cc([N+](=O)[O-])c(C(F)(F)F)cc2[nH]1 (racemic) [compound 254]
% Inhibition [1, 7]: 41% | IC50 ([1]; rat cytosol, read-out: IC50): 670 nM | IC50 [2, 5]: 1.02 µM and 0.92 µM

CC(O)(SC1CCCCC1)c1cc2cc([N+](=O)[O-])c(C(F)(F)F)cc2[nH]1 (racemic) [compound 256]
IC50 [2, 5]: 2.65 µM

CC(O)(SC1CCCCC1)c1cc2cc(C#N)c(C(F)(F)F)cc2[nH]1 (racemic) [compound 257]
IC50 [2, 5]: 5.15 µM

CC(O)(Sc1ccccc1)c1cc2cc([N+](=O)[O-])c(C(F)(F)F)cc2[nH]1 (racemic) [compound 258]
% Inhibition [1, 7]: 35.4% | IC50 [2, 5]: 2.45 µM

CC(O)(Sc1ccc(Cl)cc1)c1cc2cc([N+](=O)[O-])c(C(F)(F)F)cc2[nH]1 (racemic) [compound 259]
IC50 [2, 5]: 0.915 µM

CC(O)(Sc1ccc(Cl)cc1)c1cc2cc(C#N)c(C(F)(F)F)cc2[nH]1 (racemic) [compound 261]
% Inhibition [1, 7]: 14.05% | IC50 [2, 5]: 1.46 µM

CC(O)(c1cc2cc(C#N)c(C(F)(F)F)cc2[nH]1)S(=O)(=O)c1ccc(Cl)cc1 (racemic) [compound 262]
% Inhibition [1, 7]: −8.4% | IC50 [2, 5]: > 10 µM

CC(O)(Sc1ccc(N)cc1)c1cc2cc([N+](=O)[O-])c(C(F)(F)F)cc2[nH]1 (racemic) [compound 266]
% Activity [3]: −4% | % Inhibition [1, 6]: 12.4% | active / inactive (inhibition of testosterone-enhanced prostate weight) [4]: inactive

CC(C)SC(C)(CO)c1cc2cc([N+](=O)[O-])c(C(F)(F)F)cc2[nH]1 (racemic) [compound 268]
% Activity [3]: 9% | % Inhibition [1, 6]: −3.3% | active / inactive (inhibition of testosterone-enhanced prostate weight) [4]: inactive

CS(=O)(=O)n1c(C2(O)CCN(Cc3ccccc3)CC2)cc2cc(Cl)c(C(F)(F)F)cc21 [Compound #21]
inhibition at 1 µM [1, 7]: -41.5% | IC50 [2, 5]: > 10.2 µM

OC1(c2cc3cc(Cl)c(C(F)(F)F)cc3[nH]2)CCN(Cc2ccccc2)CC1 [Compound #22]
IC50 [2, 5]: > 9.6 µM

CS(=O)(=O)n1c(C2(O)CCN(C(=O)c3ccc(Cl)cc3)CC2)cc2cc(Cl)c(C(F)(F)F)cc21 [compound 24]
% Inhibition [1, 7]: 2%

Cc1ccc(CN2CCC(O)(c3cc4cc([N+](=O)[O-])c(C(F)(F)F)cc4[nH]3)CC2)cc1 [compound 27]
IC50 ([1]; rat cytosol, read-out: IC50): 3100 nM

OC1(c2cc3cc(Cl)c(C(F)(F)F)cc3[nH]2)CCN(Cc2ccc(F)cc2)CC1 [compound 28]
inhibition at 1 µM [1, 7]: -3.4% | IC50 ([1]; rat cytosol, read-out: IC50): 7000 nM

COc1cccc(CN2CCC(O)(c3cc4cc(Cl)c(C(F)(F)F)cc4[nH]3)CC2)c1 [compound 29]
inhibition at 1 µM [1, 7]: -1.8% | IC50 ([1]; rat cytosol, read-out: IC50): 4700 nM

Cc1ccc(CN2CCC(O)(c3cc4cc(Cl)c(C(F)(F)F)cc4[nH]3)CC2)cc1 [compound 30]
inhibition at 1 µM [1, 7]: -7.7% | IC50 ([1]; rat cytosol, read-out: IC50): 4100 nM

OC1(c2cc3cc(Cl)c(C(F)(F)F)cc3[nH]2)CCN(Cc2ccc(Cl)cc2)CC1 [compound 31]
inhibition at 1 µM [1, 7]: 20% | IC50 ([1]; rat cytosol, read-out: IC50): 4050 nM

CS(=O)(=O)c1ccc(CN2CCC(O)(c3cc4cc(Cl)c(C(F)(F)F)cc4[nH]3)CC2)cc1 [compound 34]
inhibition at 1 µM [1, 7]: 18% | IC50 ([1]; rat cytosol, read-out: IC50): 5700 nM

COc1ccc(CN2CCC(O)(c3cc4cc(Cl)c(C(F)(F)F)cc4[nH]3)CC2)cc1 [compound 35]
inhibition at 1 µM [1, 7]: -19% | IC50 ([1]; rat cytosol, read-out: IC50): 4200 nM

OC1(c2cc3cc(Cl)c(C(F)(F)F)cc3[nH]2)CCN(Cc2ccc(Cl)c(Cl)c2)CC1 [compound 36]
IC50 ([1]; IC50 (nM)): > 100000 nM | inhibition at 1 µM [1, 7]: -34%

COc1cccc(CN2CCC(O)(c3cc4cc([N+](=O)[O-])c(C(F)(F)F)cc4[nH]3)CC2)c1 [compound 38]
% Inhibition [1, 8]: 16% | IC50 ([1]; rat cytosol, read-out: IC50): 8800 nM

COc1cccc(CN2CCC(O)(c3cc4cc([N+](=O)[O-])c(C(F)(F)F)cc4[nH]3)CC2)c1 [compound 39]
% Inhibition [1, 8]: 6% | IC50 ([1]; rat cytosol, read-out: IC50): > 6100 nM

O=[N+]([O-])c1cc2cc(C3(O)CCN(Cc4ccc(Cl)cc4)CC3)[nH]c2cc1C(F)(F)F [compound 40]
% Inhibition [1, 8]: −2.5% | IC50 ([1]; rat cytosol, read-out: IC50): 3800 nM

O=[N+]([O-])c1cc2cc(C3(O)CCN(Cc4ccc(Cl)cc4)CC3)[nH]c2cc1C(F)(F)F [compound 41]
% Inhibition [1, 8]: 20% | IC50 ([1]; rat cytosol, read-out: IC50): 2300 nM

O=[N+]([O-])c1cc2cc(C3(O)CCN(Cc4ccc(Cl)c(Cl)c4)CC3)[nH]c2cc1C(F)(F)F [compound 43]
inhibition at 1 µM [1, 7]: 5.8% | IC50 ([1]; rat cytosol, read-out: IC50): 9100 nM

CC(O)(COC(=O)c1ccccc1Cl)c1cc2cc([N+](=O)[O-])c(C(F)(F)F)cc2[nH]1 (stereo not shown) [compound 54]
IC50 [2]: 0.465 µM

CC(O)(CSc1ccc(F)cc1)c1cc2cc(Cl)c(C(F)(F)F)cc2[nH]1 (stereo not shown) [compound 83]
IC50 [2, 5]: 0.16 µM

CC(O)(CSc1ccc(Cl)cc1)c1cc2cc(C#N)c(C(F)(F)F)cc2[nH]1 (stereo not shown) [compound 96]
IC50 [2]: 1.71 µM
